{
  "source": "patent US8647865B2",
  "about": "“Promiscuous PAP CD4 T cell epitopes” (Dendreon Corporation, priority 2006, dated 2014)",
  "format_in_all_cases": "cell-based, human",
  "key": {"[1]": {"tested_on": "CD4+ T-cell clone (PAPc66)", "assay": "Peptide promiscuity assay: HLA-DRβ1 homozygous EBV-LcL lines present the peptide to PAPc66, IFNγ and granzyme B measured by ELISA", "description": "FIG. 3. PAP257-271 is a promiscuous MHC class II PAP epitope recognized by the T cell clone PAPc66. (A) The peptide, PAP257-271 (RLQGGVLVNNEILNHM; SEQ ID NO:1), recognized by a CD4+ T-cell clone (PAPc66) in the context of MHC class II, is capable of inducing T-cell activation when presented by lymphoblastoid cell lines representing 9 different HLA-DR serological families (β chain; DR1, DR4, DR7, DR8, DR11, DR12, DR13, DR14, DR15) having over 15 distinct HLA-DRβ1 alleles. […] The assay was set up in 96 well round bottom plates with PAPc66 at 1×10^5 cells/well, PAP257-271 at 2 μg/mL and 2×10^5 EBV-LcL per well in complete RPMI+10% FBS. Each HLA-DR[…]EBV-LcL line, homozygous for the HLA-DRβ1 allele shown, was tested for the ability to present PAP257-271 to PAPc66. An irrelevant PAP peptide and no peptide control were also included. After 48-hour incubation at 37° C. and 5% CO2, supernatants were tested for IFNγ and granzyme B (B) by ELISA. Results are shown with background (no peptide) for each EBV-LcL line and PAPc66 subtracted.\nHLA-DRβ1 EBV-LcL lines were purchased from the European Collection of Cell Cultures originating from the 12th International Histocompatibility Workshop (IHW) held in Strasbourg, France. HLA-DR EBV-transformed lymphoblastoid cells were homozygous for the HLA-DRβ1 allele (Table I). EBV-LcL were also generated from various subject PBMC using supernatant from the B95-8 cell line (ATCC, Manassas, Va.) for the expansion and testing of autologous T cell clones.\n(§1) All assays were set up in triplicate in 96-well round bottom plates with antigen or peptide in cRPMI 1640+10% FBS (Fetal Bovine Serum (Invitrogen, Carlsbad, Calif.)), T cell clones at 1×10^5 cells/well and antigen presenting cells at 2×10^5 cells/well. […]\n(§2) IFN[…] production was measured using anti-human IFNγ antibody pairs for ELISA (BD Pharmingen, San Diego, Calif.). […] 2M HCl was added to stop the reaction and plates were read for absorbance at 492 nm on a spectrophotometer. […]"}, "[2]": {"tested_on": "CD4+ T-cell clone (PAPc66)", "assay": "Antigen specificity of T cell clone PAPc66 with autologous EBV-LcL, IFNγ ELISA", "description": "FIG. 1. T cell clone PAPc66 recognizes a naturally processed epitope from PAP. (A) PAP fusion proteins PA2024, CHOPA2024 and hPAPGM and PAP from a baculoviral expression system (iPAP) and mammalian expression system (CHOPAP) were titrated with autologous EBV-LcL and PAPc66. Assay was set up in 96 well round bottom plates with 1×10^5 cells/well of PAPc66, 2×10^5 cells/well EBV-LcL and antigens at 50 μg/mL (black bars), 25 μg/mL (stripe bars) and 12.5 μg/mL (dot bars) in complete RPMI media with 10% FBS. Assay was incubated for 48 hours at 37° C. with 5% CO2 at which time supernatants were harvested and tested for IFNγ by ELISA. (B) To map the specific PAP peptide, chemically synthesized peptides from the PAP sequence were used. These 94 peptides were 15 amino acids in length overlapping by 11 amino acids and were individually tested for the ability to stimulate PAPc66 using autologous EBV-LcL and each peptide at 2 μg/mL in the assay. The assay was set up as in (A) and supernatants were tested for IFNγ by ELISA. […] Supernatants were analyzed for peptide specific IFNγ production by ELISA. […]\nas §2"}, "[3]": {"tested_on": "CD4+ T-cell clone (PAPc66)", "assay": "MHC Class II blocking assay with autologous EBV-LcL, IFNγ ELISA", "settings": "peptide at 2 μg/mL, 48 hours", "description": "FIG. 2. PAPc661 is MHC class II restricted. PAPc66 was stimulated with autologous EBV-LcL at 2×10^5 cells/mL and PAP257-271 at 2 μg/mL in the presence of MHC Class II blocking antibodies. The assay was set up in 96 well round bottom plates in complete RPMI media +10% FBS with anti-HLA-DR ♦ (Dendreon) and anti-HLA-DP ▪ or anti HLA-DQ ▴ (Leinco Technologies, Inc., St. Louis, […].) at the concentrations shown. Anti-HLA-A2 antibody (∘) was used as a negative control. PAPc66 was added to all wells at 1×10^5 cells/well and the assay was incubated for 48 hours at 37° C. and 5% CO2. After the incubation, supernatants were harvested and tested for IFNγ by ELISA. IFNγ was not detected for conditions without peptide.\nas §1, with “cells/well. Autologous EBV-LcL were used for antigen presenting cells in specificity assays and assays conducted to show peptide promiscuity using the HLA-DRB1 EBV-LcLs. All assays were incubated for 48 hours at 37° C. with 5% CO2.” for “cells/well.”\nas §2"}},
  "data": [
    {"sequence": "RLQGGVLVNEILNHM (residues 257-271 of human prostatic acid phosphatase (PAP), PAP epitope 257-271, Peptide #65, PAP-257-271) [PAP257-271, peptide corresponding to residues 257-271 of the human PAP protein]", "values": [
      {"measurement": "cytokine production by clone PAPc66 upon activation with the presented peptide", "setting": "[1]; IFNγ and granzyme B ELISA of supernatants", "result": "produce IFNγ and granzyme B upon activation"},
      {"measurement": "number of distinct HLA-DRβ1 alleles presenting the peptide with T-cell activation", "setting": "[1]; peptide at 2 μg/mL, 48 hours, EBV-LcL homozygous for the HLA-DRβ1 allele", "result": "over 15"},
      {"measurement": "number of different HLA-DR serological families whose lymphoblastoid cell lines present the peptide and induce T-cell activation", "setting": "[1]; peptide at 2 μg/mL, 48 hours, PAPc66 1×10^5 cells/well, 2×10^5 EBV-LcL per well", "result": 9},
      {"measurement": "nature of the epitope recognized by PAPc66 (summary of FIGS. 1-3)", "setting": "[2]", "result": "naturally processed, MHC class II-restricted promiscuous epitope"},
      {"measurement": "MHC class II restriction of presentation (blocking antibodies anti-HLA-DR, -DP, -DQ)", "setting": "[3]", "result": "presented both in the context of HLA-DR and HLA-DQ"}
    ]}
  ]
}
